The inhibition is the relative decrease from the control value, in per cent.

Results on 24 compounds are retold here after patent US9957251B2 (Takeda Pharmaceutical Company Limited, priority 2014, dated 2018).

The target in one experiment is T1, CDK8/CycC (Homo sapiens, UniProt P49336).
T1 construct: purchased Carna Biosciences
Nature of the experiment: CDK8 inhibitory activity (TR-FRET, Kinase Tracer-236 displacement). It counts as binding. Particulars: 1 μM of the test compound; for inhibition at 1 µM: read-out: Percent inhibition of CDK8 activity (%). The method, boiled down: (§1)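 Binding assay measuring displacement of Kinase Tracer-236 (60 nM in the added mix) by compound, using Eu-cryptate anti-GST antibody with CDK8/CycC (84 ng/mL) or CDC2L6/CycC (87 ng/mL) solutions. After 1 h at room temperature, TR-FRET read at 615 and 665 nm (excitation 320 nm).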
(Time-resolved FRET reads energy transfer from a long-lived donor to a nearby acceptor.)

Experiment [1] relates to human multiple myeloma RPMI8226 cells. Nature of the experiment: Inhibitory activity against human multiple myeloma RPMI8226 cell growth (CellTiter-Glo). The experiment is classed as cell-based. Particulars: 1 μM of the test compound, cultured for 8 days; for inhibition at 1 µM: Homo sapiens, RPMI-8226, 192 h, read-out: Percent inhibition of RPMI8226 cell growth (%). In short, it runs like this:
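RPMI8226 cells (300/well) cultured 1 day at 37 °C, 5% CO2, then given compound at 1 μM for 8 days. ATP luminescence (CellTiter-Glo) read; percent inhibition relative to 0.1% DMSO wells.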
In general terms: Cellular ATP, detected with luciferase, serves as a proxy for viable cell number.

The target of another experiment is T2, CDK19 (CDC2L6/CycC) (Homo sapiens, UniProt Q9BWU1).
T2 construct: purchased Carna Biosciences
Nature of the experiment: CDK19 inhibitory activity (TR-FRET, Kinase Tracer-236 displacement). It counts as binding. Conditions: 1 μM of the test compound; for inhibition at 1 µM: read-out: Percent inhibition of CDK19 activity (%). The method, boiled down: as §1

T2 sequence (Q9BWU1 whole entry): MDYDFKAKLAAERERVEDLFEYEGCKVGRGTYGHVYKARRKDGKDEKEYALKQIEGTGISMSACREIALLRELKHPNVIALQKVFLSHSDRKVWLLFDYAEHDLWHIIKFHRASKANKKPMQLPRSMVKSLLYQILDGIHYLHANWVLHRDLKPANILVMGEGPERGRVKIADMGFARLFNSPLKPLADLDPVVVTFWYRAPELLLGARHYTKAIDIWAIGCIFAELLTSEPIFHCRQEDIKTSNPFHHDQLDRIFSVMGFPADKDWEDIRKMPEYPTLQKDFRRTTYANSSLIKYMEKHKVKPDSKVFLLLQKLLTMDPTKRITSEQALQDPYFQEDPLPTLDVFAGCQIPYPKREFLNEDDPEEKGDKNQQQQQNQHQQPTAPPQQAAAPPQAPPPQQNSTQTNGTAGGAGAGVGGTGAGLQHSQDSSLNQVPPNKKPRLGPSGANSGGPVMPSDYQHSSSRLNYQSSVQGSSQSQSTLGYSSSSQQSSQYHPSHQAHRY
T2 sequence (P24863 whole entry partner): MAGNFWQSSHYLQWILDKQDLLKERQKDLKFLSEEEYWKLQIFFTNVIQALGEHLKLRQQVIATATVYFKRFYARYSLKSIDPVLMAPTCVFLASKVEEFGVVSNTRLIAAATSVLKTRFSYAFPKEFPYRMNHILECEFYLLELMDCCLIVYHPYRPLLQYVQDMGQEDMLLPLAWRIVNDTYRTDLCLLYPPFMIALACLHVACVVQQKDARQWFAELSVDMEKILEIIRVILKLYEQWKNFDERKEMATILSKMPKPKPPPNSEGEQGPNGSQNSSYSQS
T1 sequence (P49336 whole entry): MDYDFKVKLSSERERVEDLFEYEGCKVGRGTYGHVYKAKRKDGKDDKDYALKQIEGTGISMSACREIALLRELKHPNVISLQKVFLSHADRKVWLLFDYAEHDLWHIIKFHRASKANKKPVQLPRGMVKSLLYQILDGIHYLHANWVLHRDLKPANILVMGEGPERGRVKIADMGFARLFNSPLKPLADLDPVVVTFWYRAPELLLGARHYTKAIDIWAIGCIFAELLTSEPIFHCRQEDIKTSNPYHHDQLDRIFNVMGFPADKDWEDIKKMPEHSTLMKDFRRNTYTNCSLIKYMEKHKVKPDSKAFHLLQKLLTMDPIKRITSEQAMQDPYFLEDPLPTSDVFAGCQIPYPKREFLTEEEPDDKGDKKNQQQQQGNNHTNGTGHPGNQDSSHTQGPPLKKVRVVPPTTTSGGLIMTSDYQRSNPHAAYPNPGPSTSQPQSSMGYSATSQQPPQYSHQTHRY
T1 sequence (P24863 whole entry partner): as the sequence (P24863 whole entry partner) above

Take `COCCOc1ccc(NC(=O)/C=C/c2cnccc2-c2cnn(C)c2)cc1` [Example 253, (2E)-N-(4-(2-methoxyethoxy)phenyl)-3-(4-(1-methyl-1H-pyrazol-4-yl)pyridin-3-yl)acrylamide]: the results for the inhibition at 1 µM (at CDK8/CycC; in experiment [1]; at CDK19 (CDC2L6/CycC)) were 98%, 62% and 97%, respectively.
Taken in the same sequence, the figures for `Cn1cc(-c2ccncc2/C=C/C(=O)Nc2ccc(CN3CCOCC3)cc2F)cn1` [Example 41, (2E)-N-(2-Fluoro-4-(morpholin-4-ylmethyl)phenyl)-3-(4-(1-methyl-1H-pyrazol-4-yl)pyridin-3-yl)acrylamide] were 99%, 56% and 97%.
Regarding `COc1ccsc1-c1ccncc1/C=C/C(=O)Nc1ccc(CN2CCOCC2)cc1` [Example 100, (2E)-3-(4-(3-methoxy-2-thienyl)pyridin-3-yl)-N-(4-(morpholin-4-ylmethyl)phenyl)acrylamide], the results for the inhibition at 1 µM (on CDK8/CycC; in experiment [1]; on CDK19 (CDC2L6/CycC)) were 97%, 52% and 100%, respectively.
`O=C(/C=C/c1cnccc1-c1cn[nH]c1)Nc1ccc(CN2CCOCC2)cc1` [Example 33, (2E)-N-(4-(morpholin-4-ylmethyl)phenyl)-3-(4-(1H-pyrazol-4-yl)pyridin-3-yl)acrylamide]: the results for the inhibition at 1 µM (on CDK8/CycC; in experiment [1]; at CDK19 (CDC2L6/CycC)) were 100%, 61% and 99%, respectively.
Taken in the same sequence, the figures for `CCN1CCc2ccc(NC(=O)/C=C/c3cnccc3-c3cnn(C)c3)cc2C1` [Example 257, (2E)-N-(2-ethyl-1,2,3,4-tetrahydroisoquinolin-7-yl)-3-(4-(1-methyl-1H-pyrazol-4-yl)pyridin-3-yl)acrylamide] were 99%, 56% and 95%.
As to `Cn1ccc2cc(NC(=O)/C=C/c3cnccc3-c3cnn(C4CC4)c3)ccc21` [Example 251, (2E)-3-(4-(1-Cyclopropyl-1H-pyrazol-4-yl)pyridin-3-yl)-N-(1-methyl-1H-indol-5-yl)acrylamide], the inhibition at 1 µM stood at 100% on CDK8/CycC, 61% in experiment [1] and 97% at CDK19 (CDC2L6/CycC).
On to `Cn1cc(-c2ccncc2/C=C/C(=O)Nc2ccc(CN3CCCC3CO)cc2)cn1` (stereo not drawn) [Example 76, (2E)-N-(4-((2-(hydroxymethyl)pyrrolidin-1-yl)methyl)phenyl)-3-(4-(1-methyl-1H-pyrazol-4-yl)pyridin-3-yl)acrylamide], for which the inhibition at 1 µM on CDK8/CycC amounted to 104%; in experiment [1], 52%; at CDK19 (CDC2L6/CycC), 93%.
Regarding `O=C(/C=C/c1cnccc1-c1ccns1)Nc1ccc(CN2CCOCC2)cc1` [Example 196, (2E)-N-(4-(morpholin-4-ylmethyl)phenyl)-3-(4-(1,2-thiazol-5-yl)pyridin-3-yl)acrylamide], the values for the inhibition at 1 µM (at CDK8/CycC; in experiment [1]; on CDK19 (CDC2L6/CycC)) were 101%, 54% and 98%, respectively.
The matching figures for `COc1ncc(-c2ccncc2/C=C/C(=O)Nc2ccc(CN3CCOCC3)cc2)s1` [Example 221, (2E)-3-(4-(2-Methoxy-1,3-thiazol-5-yl)pyridin-3-yl)-N-(4-(morpholin-4-ylmethyl)phenyl)acrylamide]: 99%, 63% and 98%.
Taken in the same sequence, the figures for `CC1CN(Cc2ccc(NC(=O)/C=C/c3cnccc3-c3cnn(C)c3)cc2)CCO1` (stereo not drawn) [Example 55, (2E)-N-(4-((2-methylmorpholin-4-yl)methyl)phenyl)-3-(4-(1-methyl-1H-pyrazol-4-yl)pyridin-3-yl)acrylamide] were 99%, 55% and 97%.
With `O=C(/C=C/c1cnccc1-c1cnsc1)Nc1ccc(CN2CCOCC2)cc1` [Example 145, (2E)-N-(4-(Morpholin-4-ylmethyl)phenyl)-3-(4-(1,2-thiazol-4-yl)pyridin-3-yl)acrylamide], the results for the inhibition at 1 µM (at CDK8/CycC; in experiment [1]; at CDK19 (CDC2L6/CycC)) were 90%, 51% and 94%, respectively.
Taken in the same sequence, the figures for `Cn1cc(-c2ccncc2/C=C/C(=O)Nc2ccc3c(ccn3C)c2)cn1` [Example 175, (2E)-N-(1-Methyl-1H-indol-5-yl)-3-(4-(1-methyl-1H-pyrazol-4-yl)pyridin-3-yl)acrylamide] were 98%, 55% and 99%.
In the case of `Cc1cc(NC(=O)/C=C/c2cnccc2-c2cnn(C)c2)ccc1CN1CCOCC1` [Example 109, (2E)-N-(3-Methyl-4-(morpholin-4-ylmethyl)phenyl)-3-(4-(1-methyl-1H-pyrazol-4-yl)pyridin-3-yl)acrylamide], the values for the inhibition at 1 µM (on CDK8/CycC; in experiment [1]; at CDK19 (CDC2L6/CycC)) were 96%, 58% and 98%, respectively.
As to `O=C(/C=C/c1cnccc1-c1cnn(C2CC2)c1)Nc1ccc2c(c1)CN(CC(F)(F)F)C2` [Example 319, (2E)-3-(4-(1-Cyclopropyl-1H-pyrazol-4-yl)pyridin-3-yl)-N-(2-(2,2,2-trifluoroethyl)-2,3-dihydro-1H-isoindol-5-yl)acrylamide], the inhibition at 1 µM on CDK8/CycC stood at 103%; in experiment [1], 47%; on CDK19 (CDC2L6/CycC), 101%.
For the compound `O=C(/C=C/c1cnccc1-c1cnn(C2CC2)c1)Nc1ccc(C2CC2)cc1` [Example 290], the inhibition at 1 µM at CDK8/CycC was determined as 95%; in experiment [1], 53%; at CDK19 (CDC2L6/CycC), 89%.
Taken in the same sequence, the figures for `Cn1cc(-c2ccncc2/C=C/C(=O)Nc2ccc(CNC3CC3)cc2)cn1` [Example 49, (2E)-N-(4-((cyclopropylamino)methyl)phenyl)-3-(4-(1-methyl-1H-pyrazol-4-yl)pyridin-3-yl)acrylamide] were 95%, 56% and 96%.
Consider `O=C(/C=C/c1cnccc1-c1cnn(C2CC2)c1)Nc1ccc(CN2CC(F)(F)C2)cc1` [Example 377, (2E)-3-(4-(1-Cyclopropyl-1H-pyrazol-4-yl)pyridin-3-yl)-N-(4-((3,3-difluoroazetidin-1-yl)methyl)phenyl)acrylamide hemisuccinate], for which, at CDK8/CycC (1 µM), the “Percent inhibition of CDK8 activity (%)” value is 102%. Moreover, the “Percent inhibition of RPMI8226 cell growth (%)” value in experiment [1] (1 µM) came out at 66%. Besides, the “Percent inhibition of CDK19 activity (%)” value on CDK19 (CDC2L6/CycC) (1 µM) amounted to 100%.
Take `O=C(/C=C/c1cnccc1-c1cnn(C2CC2)c1)Nc1ccc2c(c1)CN(CC(F)(F)C(F)(F)F)CC2` [Example 300, (2E)-3-(4-(1-cyclopropyl-1H-pyrazol-4-yl)pyridin-3-yl)-N-(2-(2,2,3,3,3-pentafluoropropyl)-1,2,3,4-tetrahydroisoquinolin-7-yl)acrylamide]: the inhibition at 1 µM on CDK8/CycC was 97%; in experiment [1], 57%; on CDK19 (CDC2L6/CycC) it was 94%.
Turning to `CN(C)CCOc1ccc(NC(=O)/C=C/c2cnccc2-c2cnn(C)c2)cc1` [Example 252, (2E)-N-(4-(2-(dimethylamino)ethoxy)phenyl)-3-(4-(1-methyl-1H-pyrazol-4-yl)pyridin-3-yl)acrylamide], the inhibition at 1 µM on CDK8/CycC is 99%; in experiment [1], 60%; on CDK19 (CDC2L6/CycC) it was 93%.
Take `CC(=O)N(C)Cc1cc(NC(=O)/C=C/c2cnccc2-c2cnn(C)c2)ccc1C` [Example 246, (2E)-N-(3-((acetyl(methyl)amino)methyl)-4-methylphenyl)-3-(4-(1-methyl-1H-pyrazol-4-yl)pyridin-3-yl)acrylamide]: the figures for the inhibition at 1 µM (on CDK8/CycC; in experiment [1]; on CDK19 (CDC2L6/CycC)) were 95%, 49% and 93%, respectively.
Taken in the same sequence, the figures for `Cc1noc(C)c1-c1ccc(NC(=O)/C=C/c2cnccc2-c2cnn(C3CC3)c2)c(F)c1` [Example 311, (2E)-3-(4-(1-cyclopropyl-1H-pyrazol-4-yl)pyridin-3-yl)-N-(4-(3,5-dimethyl-1,2-oxazol-4-yl)-2-fluorophenyl)acrylamide] were 103%, 58% and 98%.
Take `O=C(/C=C/c1cnccc1-c1cnn(C(F)F)c1)Nc1ccc(CN2CCOCC2)cc1` [Example 98, (2E)-3-(4-(1-(Difluoromethyl)-1H-pyrazol-4-yl)pyridin-3-yl)-N-(4-(morpholin-4-ylmethyl)phenyl)acrylamide]: the inhibition at 1 µM at CDK8/CycC amounted to 98%; in experiment [1], 53%; on CDK19 (CDC2L6/CycC) it was 100%.
The matching figures for `O=C(/C=C/c1cnccc1-c1cnn(C2CC2)c1)Nc1ccc2c(c1)CCN(CC(F)(F)F)C2` [Example 316, (2E)-3-(4-(1-Cyclopropyl-1H-pyrazol-4-yl)pyridin-3-yl)-N-(2-(2,2,2-trifluoroethyl)-1,2,3,4-tetrahydroisoquinolin-6-yl)acrylamide]: 103%, 49% and 98%.
Consider `CCN1CCc2cc(NC(=O)/C=C/c3cnccc3-c3cnn(C)c3)ccc2C1` [Example 256, (2E)-N-(2-ethyl-1,2,3,4-tetrahydroisoquinolin-6-yl)-3-(4-(1-methyl-1H-pyrazol-4-yl)pyridin-3-yl)acrylamide], for which the inhibition at 1 µM on CDK8/CycC was 96%; in experiment [1], 58%; at CDK19 (CDC2L6/CycC), 95%.
